In ChEMBL document CHEMBL1201862, “PubChem BioAssay data set” (2004):
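Five compound concentrations were applied to cells in 96-well plates for 48 hours; endpoints were derived by simple linear interpolation of the resulting dose-response curve. Here, GI50 denotes the concentration required for 50% inhibition of growth.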 The source made the active and inactive calls. No stated cut-off is given here; in the data, active = GI50 up to about 1.1 µM and inactive = higher.

What was measured:
Assay in all cases: growth of human tumour cells (NCI), 48 h
HCT-116 = tested on: HCT-116
UACC-62 = tested on: UACC-62
HCT-15 = tested on: HCT-15
SNB-19 = tested on: SNB-19
U-251 = tested on: U-251
SK-MEL-28 = tested on: SK-MEL-28
SW-620 = tested on: SW-620
SNB-75 = tested on: SNB-75
M14 = tested on: M14
SF-295 = tested on: SF-295
SK-OV-3 = tested on: SK-OV-3
NCI-H226 = tested on: NCI-H226
UACC-257 = tested on: UACC-257
T47D = tested on: T47D
TK-10 = tested on: TK-10
OVCAR-3 = tested on: OVCAR-3
MOLT-4 = tested on: MOLT-4
KM12 = tested on: KM12
UO-31 = tested on: UO-31
EKVX = tested on: EKVX
HT-29 = tested on: HT-29
RPMI-8226 = tested on: RPMI-8226
MDA-MB-231 = tested on: MDA-MB-231
OVCAR-4 = tested on: OVCAR-4
RXF 393 = tested on: RXF 393
SK-MEL-5 = tested on: SK-MEL-5
IGROV-1 = tested on: IGROV-1
MDA-N = tested on: MDA-N
ACHN = tested on: ACHN
OVCAR-5 = tested on: OVCAR-5
OVCAR-8 = tested on: OVCAR-8
DU-145 = tested on: DU-145
A549 = tested on: A549
HL-60 = tested on: HL-60
NCI-H23 = tested on: NCI-H23
COLO 205 = tested on: COLO 205
LOX IMVI = tested on: LOX IMVI
PC-3 = tested on: PC-3
SK-MEL-2 = tested on: SK-MEL-2
SF-268 = tested on: SF-268
CAKI-1 = tested on: CAKI-1
MCF7 = tested on: MCF7
NCI/ADR-RES = tested on: NCI/ADR-RES
A498 = tested on: A498
786-0 = tested on: 786-0
BT-549 = tested on: BT-549
NCI-H522 = tested on: NCI-H522
NCI-H460 = tested on: NCI-H460
SN12C = tested on: SN12C
SF-539 = tested on: SF-539
K562 = tested on: K562
HOP-62 = tested on: HOP-62
Malme-3M = tested on: Malme-3M
MDA-MB-435 = tested on: MDA-MB-435
Hs-578T = tested on: Hs-578T
CCRF-CEM = tested on: CCRF-CEM
HOP-92 = tested on: HOP-92
HCC 2998 = tested on: HCC 2998
SR = tested on: SR

`O=C(O)C1C2OC(C(Br)C2Br)C1C(=O)O` (stereo not drawn) was tested, and the GI50 (HCT-116) was > 100 µM (inactive), the GI50 (UACC-62) was > 100 µM (inactive) and the GI50 (HCT-15) was greater than 100 µM. For the same compound, the GI50 (SNB-19) was > 100 µM (inactive), the GI50 (U-251) was > 100 µM (inactive) and the GI50 (SK-MEL-28) was > 100 µM (inactive). The GI50 (SW-620) was > 100 µM (inactive), the GI50 (SNB-75) was > 100 µM (inactive) and the GI50 (M14) was > 100 µM (inactive). For the same compound, the GI50 (SF-295) was > 100 µM (inactive), the GI50 (SK-OV-3) was > 100 µM (inactive) and the GI50 (NCI-H226) was > 100 µM (inactive). For the same compound, the GI50 (UACC-257) was > 100 µM (inactive), the GI50 (T47D) was > 100 µM (inactive) and the GI50 (TK-10) was > 100 µM (inactive). The GI50 (OVCAR-3) was > 100 µM (inactive), the GI50 (MOLT-4) was > 100 µM (inactive) and the GI50 (KM12) was > 100 µM (inactive). For the same compound, the GI50 (UO-31) was > 100 µM (inactive), the GI50 (EKVX) was > 100 µM (inactive) and the GI50 (HT-29) was > 100 µM (inactive). The GI50 (RPMI-8226) was > 100 µM (inactive), the GI50 (MDA-MB-231) was > 100 µM (inactive) and the GI50 (OVCAR-4) was > 100 µM (inactive). For the same compound, the GI50 (RXF 393) was > 100 µM (inactive), the GI50 (SK-MEL-5) was > 100 µM (inactive) and the GI50 (IGROV-1) was > 100 µM (inactive). The GI50 (MDA-N) was > 100 µM (inactive), the GI50 (ACHN) was > 100 µM (inactive) and the GI50 (OVCAR-5) was > 100 µM (inactive). The GI50 (OVCAR-8) was > 100 µM (inactive), the GI50 (DU-145) was > 100 µM (inactive) and the GI50 (A549) was > 100 µM (inactive). For the same compound, the GI50 (HL-60) was > 100 µM (inactive), the GI50 (NCI-H23) was > 100 µM (inactive) and the GI50 (COLO 205) was > 100 µM (inactive). The GI50 (LOX IMVI) was > 100 µM (inactive), the GI50 (PC-3) was > 100 µM (inactive) and the GI50 (SK-MEL-2) was > 100 µM (inactive). For the same compound, the GI50 (SF-268) was > 100 µM (inactive), the GI50 (CAKI-1) was > 100 µM (inactive) and the GI50 (MCF7) was > 100 µM (inactive). The GI50 (NCI/ADR-RES) was > 100 µM (inactive), the GI50 (A498) was > 100 µM (inactive) and the GI50 (786-0) was > 100 µM (inactive). The GI50 (BT-549) was > 100 µM (inactive), the GI50 (NCI-H522) was > 100 µM (inactive) and the GI50 (NCI-H460) was > 100 µM (inactive). For the same compound, the GI50 (SN12C) was > 100 µM (inactive), the GI50 (SF-539) was > 100 µM (inactive) and the GI50 (K562) was > 100 µM (inactive). The GI50 (HOP-62) was > 100 µM (inactive), the GI50 (Malme-3M) was > 100 µM (inactive) and the GI50 (MDA-MB-435) was > 100 µM (inactive). For the same compound, the GI50 (Hs-578T) was 24.7 µM (inactive).

In the case of `CCCCC(C(=O)N/N=C/c1ccc([N+](=O)[O-])o1)C(=O)N/N=C/c1ccc([N+](=O)[O-])o1`, the GI50 (HCT-116) is reported as 1.36 µM (inactive), the GI50 (UACC-62) is reported as 2.91 µM (inactive) and the GI50 (HCT-15) is reported as 2.26 µM. For the same compound, the GI50 (SNB-19) was 3.64 µM (inactive), the GI50 (U-251) was 2.74 µM (inactive) and the GI50 (SK-MEL-28) was 3.96 µM (inactive). The GI50 (SW-620) was 2.54 µM (inactive), the GI50 (SNB-75) was 17.9 µM (inactive) and the GI50 (M14) was 3.81 µM (inactive). For the same compound, the GI50 (SF-295) was 15.7 µM (inactive), the GI50 (SK-OV-3) was 21.1 µM (inactive) and the GI50 (NCI-H226) was 2.37 µM (inactive). For the same compound, the GI50 (T47D) was 3.46 µM (inactive), the GI50 (TK-10) was 2.28 µM (inactive) and the GI50 (OVCAR-3) was 2.32 µM (inactive). For the same compound, the GI50 (MOLT-4) was 2.09 µM (inactive), the GI50 (KM12) was 3.66 µM (inactive) and the GI50 (UO-31) was 1.99 µM (inactive). For the same compound, the GI50 (EKVX) was 13.4 µM (inactive), the GI50 (HT-29) was 2.14 µM (inactive) and the GI50 (RPMI-8226) was 0.682 µM (active). For the same compound, the GI50 (MDA-MB-231) was 3.81 µM (inactive), the GI50 (OVCAR-4) was 1.74 µM (inactive) and the GI50 (CCRF-CEM) was 0.977 µM (active). The GI50 (RXF 393) was 2.07 µM (inactive), the GI50 (SK-MEL-5) was 3.37 µM (inactive) and the GI50 (IGROV-1) was 2.17 µM (inactive). The GI50 (MDA-N) was 3.53 µM (inactive), the GI50 (ACHN) was 1.82 µM (inactive) and the GI50 (OVCAR-5) was 2.81 µM (inactive). The GI50 (OVCAR-8) was 2.05 µM (inactive), the GI50 (DU-145) was 5.37 µM (inactive) and the GI50 (A549) was 17.7 µM (inactive). The GI50 (HL-60) was 2.52 µM (inactive), the GI50 (NCI-H23) was 2.02 µM (inactive) and the GI50 (COLO 205) was 4.28 µM (inactive). The GI50 (HOP-92) was 1.52 µM (inactive), the GI50 (LOX IMVI) was 1.84 µM (inactive) and the GI50 (PC-3) was 2.81 µM (inactive). For the same compound, the GI50 (SK-MEL-2) was 7.19 µM (inactive), the GI50 (SF-268) was 5.65 µM (inactive) and the GI50 (CAKI-1) was 4.06 µM (inactive). For the same compound, the GI50 (MCF7) was 4.51 µM (inactive), the GI50 (NCI/ADR-RES) was 2.64 µM (inactive) and the GI50 (A498) was 19.8 µM (inactive). For the same compound, the GI50 (786-0) was 2.11 µM (inactive), the GI50 (BT-549) was 5.61 µM (inactive) and the GI50 (NCI-H460) was 15.1 µM (inactive). The GI50 (SN12C) was 3.66 µM (inactive), the GI50 (SF-539) was 10.1 µM (inactive) and the GI50 (K562) was 3.28 µM (inactive). The GI50 (HOP-62) was 13.1 µM (inactive), the GI50 (Malme-3M) was 2.2 µM (inactive) and the GI50 (MDA-MB-435) was 5.7 µM (inactive). The GI50 (Hs-578T) was 2.4 µM (inactive).

In the case of `COc1ccc(N2C(=O)C3c4[nH]c5ccccc5c4C4CCC(C(C)(C)C)CC4C3C2=O)c(C)c1` (stereo not drawn), the GI50 (HCT-116) is reported as > 100 µM (inactive), the GI50 (UACC-62) is reported as > 100 µM (inactive) and the GI50 (HCT-15) is reported as greater than 100 µM. The GI50 (SNB-19) was > 100 µM (inactive), the GI50 (U-251) was > 100 µM (inactive) and the GI50 (SK-MEL-28) was > 100 µM (inactive). For the same compound, the GI50 (SW-620) was > 100 µM (inactive), the GI50 (SNB-75) was > 100 µM (inactive) and the GI50 (M14) was > 100 µM (inactive). For the same compound, the GI50 (SF-295) was > 100 µM (inactive), the GI50 (SK-OV-3) was > 100 µM (inactive) and the GI50 (NCI-H226) was > 100 µM (inactive). For the same compound, the GI50 (UACC-257) was > 100 µM (inactive), the GI50 (T47D) was > 100 µM (inactive) and the GI50 (TK-10) was > 100 µM (inactive). The GI50 (OVCAR-3) was > 100 µM (inactive), the GI50 (MOLT-4) was > 100 µM (inactive) and the GI50 (KM12) was > 100 µM (inactive). The GI50 (UO-31) was > 100 µM (inactive), the GI50 (EKVX) was > 100 µM (inactive) and the GI50 (HT-29) was > 100 µM (inactive). The GI50 (RPMI-8226) was > 100 µM (inactive), the GI50 (MDA-MB-231) was > 100 µM (inactive) and the GI50 (OVCAR-4) was > 100 µM (inactive). The GI50 (CCRF-CEM) was > 100 µM (inactive), the GI50 (RXF 393) was > 100 µM (inactive) and the GI50 (SK-MEL-5) was > 100 µM (inactive). For the same compound, the GI50 (IGROV-1) was > 100 µM (inactive), the GI50 (MDA-N) was > 100 µM (inactive) and the GI50 (ACHN) was > 100 µM (inactive). The GI50 (OVCAR-8) was > 100 µM (inactive), the GI50 (DU-145) was > 100 µM (inactive) and the GI50 (A549) was > 100 µM (inactive). The GI50 (HL-60) was > 100 µM (inactive), the GI50 (NCI-H23) was > 100 µM (inactive) and the GI50 (COLO 205) was > 100 µM (inactive). For the same compound, the GI50 (PC-3) was > 100 µM (inactive), the GI50 (SF-268) was > 100 µM (inactive) and the GI50 (CAKI-1) was > 100 µM (inactive). The GI50 (MCF7) was > 100 µM (inactive), the GI50 (NCI/ADR-RES) was > 100 µM (inactive) and the GI50 (786-0) was > 100 µM (inactive). For the same compound, the GI50 (HCC 2998) was > 100 µM (inactive), the GI50 (BT-549) was > 100 µM (inactive) and the GI50 (NCI-H522) was > 100 µM (inactive). For the same compound, the GI50 (NCI-H460) was > 100 µM (inactive), the GI50 (SN12C) was > 100 µM (inactive) and the GI50 (SF-539) was > 100 µM (inactive). For the same compound, the GI50 (SR) was > 100 µM (inactive), the GI50 (K562) was > 100 µM (inactive) and the GI50 (HOP-62) was > 100 µM (inactive). The GI50 (MDA-MB-435) was > 100 µM (inactive) and the GI50 (Hs-578T) was 51.3 µM (inactive).
